Source: patent US11998539B2, “Substituted aminoquinolones as DGKalpha inhibitors for immune activation” (Bayer Aktiengesellschaft, priority 2019, dated 2024)

The compounds below were run against DGKα (Homo sapiens (Human), UniProt P23743) (assay: Human DGKα kinase activity inhibition assay (ADP-Glo)). Details: recombinant full-length human DGKα, 55 μM ATP, 7 μM 1,2-dioleoyl-sn-glycerol, read-out: IC50 values of examples in in vitro human DGKa kinase activity inhibition assays.
Format: biochemical
Method: Human DGKα Kinase Activity Inhibition Assay
Human DGKα inhibitory activity of compounds of the present invention was quantified employing the human DGKα kinase activity assay as described in the following paragraphs. In essence, the enzyme activity was measured by quantification of the adenosine-di-phosphate (ADP) generated as a co-product of the enzyme reaction via the “ADP-Glo™ Kinase Assay” kit from the company Promega. This detection system works as follows: In a first step the ATP not consumed in the kinase reaction is quantitatively converted to cAMP employing an adenylate cyclase (“ADP-Glo-reagent”), then the adenylate cyclase is stopped and the ADP generated in the kinase reaction converted to ATP, which subsequently generates in a luciferase-based reaction a glow-luminescence signal (“Kinase Detection Reagent”).
C-terminally FLAG-tagged, recombinant full-length human DGKα (expressed in baculovirus infected insect cells, purified using anti-Flag pulldown and size exclusion chromatography as described below, DGKa_hu_1) was used as enzyme. As substrate for the kinase 1,2-dioleoyl-sn-glycerol, reconstituted in octyl-β-D-glucopyranoside micelles, was used. […] Then 35 volumes of 50 mM MOPS buffer (pH 7.4) were added to yield a solution of 0.28 mM 1,2 dioleoyl-sn-glycerol and 200 mM […], which was aliquoted, flash-frozen in liquid nitrogen, and stored at −20° C. until use.
For the assay 50 nl of a 100-fold concentrated solution of the test compound in dimethyl sulfoxide (DMSO, Sigma) was pipetted into either a white 1536-well or a white low-volume 384-well microtiter plate (both Greiner Bio-One, Frickenhausen, Germany).

DGKα, sequence (P23743 other isoform, or with tags, fused parts or gaps): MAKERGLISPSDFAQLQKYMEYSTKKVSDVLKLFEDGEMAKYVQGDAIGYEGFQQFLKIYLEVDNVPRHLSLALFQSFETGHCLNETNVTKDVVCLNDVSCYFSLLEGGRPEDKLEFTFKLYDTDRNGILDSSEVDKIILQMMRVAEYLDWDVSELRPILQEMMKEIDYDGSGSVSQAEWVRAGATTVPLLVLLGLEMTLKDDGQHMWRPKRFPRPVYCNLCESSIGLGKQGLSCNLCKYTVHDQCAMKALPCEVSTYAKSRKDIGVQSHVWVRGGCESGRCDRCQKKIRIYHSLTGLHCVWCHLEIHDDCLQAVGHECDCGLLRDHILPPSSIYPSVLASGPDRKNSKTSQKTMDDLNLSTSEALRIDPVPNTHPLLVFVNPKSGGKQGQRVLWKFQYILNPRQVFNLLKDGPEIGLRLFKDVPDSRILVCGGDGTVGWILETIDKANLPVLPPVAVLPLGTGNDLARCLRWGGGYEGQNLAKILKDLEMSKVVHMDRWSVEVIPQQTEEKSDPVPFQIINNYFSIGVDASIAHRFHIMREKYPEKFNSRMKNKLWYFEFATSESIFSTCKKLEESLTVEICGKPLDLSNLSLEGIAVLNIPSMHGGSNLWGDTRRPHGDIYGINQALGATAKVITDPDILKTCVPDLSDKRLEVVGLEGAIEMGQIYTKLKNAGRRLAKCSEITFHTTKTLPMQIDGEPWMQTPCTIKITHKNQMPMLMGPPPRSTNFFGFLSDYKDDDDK

Structure (SMILES)	IC50 [nM]
Cn1c(=O)c(C#N)c(N2CCC(c3cccc(NS(=O)(=O)c4ccccc4)c3)CC2)c2ccccc21 [Example 68, N-{3-[1-(3-cyano-1-methyl-2-oxo-1,2-dihydroquinolin-4-yl)piperidin-4-yl]phenyl}benzenesulfonamide]	99
Cn1c(=O)c(C#N)c(N2CCC(c3cccc(N=S(C)(C)=O)c3)CC2)c2ccccc21 [Example 69, 4-[4-(3-{[dimethyl(oxo)-A6-sulfanylidene]amino}phenyl)piperidin-1-yl]-1-methyl-2-oxo-1,2-dihydroquinoline-3-carbonitrile]	105
Cn1c(=O)c(C#N)c(N2CCC(c3cccc4scnc34)CC2)c2ccccc21 [Example 71, 4-[4-(1,3-benzothiazol-4-yl)piperidin-1-yl]-1-methyl-2-oxo-1,2-dihydroquinoline-3-carbonitrile]	23
Cn1cc(C(=O)C(F)(F)F)c2cc(C3CCN(c4c(C#N)c(=O)n(C)c5ccccc45)CC3)ccc21 [Example 72, 1-methyl-4-{4-[1-methyl-3-(trifluoroacetyl)-1H-indol-5-yl]piperidin-1-yl}-2-oxo-1,2-dihydroquinoline-3-carbonitrile]	30
Cn1c(=O)c(C#N)c(N2CCC(c3cccc4ccoc34)CC2)c2ccccc21 [Example 73]	33
Cn1c(=O)c(C#N)c(N2CCC(c3ccc4ccncc4c3)CC2)c2ccccc21 [Example 74]	48
Cn1c(=O)c(C#N)c(N2CCC(c3cccc4ncsc34)CC2)c2ccccc21 [Example 75, 4-[4-(1,3-benzothiazol-7-yl)piperidin-1-yl]-1-methyl-2-oxo-1,2-dihydroquinoline-3-carbonitrile]	49
Cn1c(=O)c(C#N)c(N2CCC(c3cccc(NC(=O)c4ccccc4)c3)CC2)c2ccccc21 [Example 76, N-{3-[1-(3-cyano-1-methyl-2-oxo-1,2-dihydroquinolin-4-yl)piperidin-4-yl]phenyl}benzamide]	50
Cn1c(=O)c(C#N)c(N2CCC(c3cccc4cnccc34)CC2)c2ccccc21 [Example 78, 4-[4-(isoquinolin-5-yl)piperidin-1-yl]-1-methyl-2-oxo-1,2-dihydroquinoline-3-carbonitrile]	104
Cn1c(=O)c(C#N)c(N2CCC(c3cccc4nccnc34)CC2)c2ccccc21 [Example 79, 1-methyl-2-oxo-4-[4-(quinoxalin-5-yl)piperidin-1-yl]-1,2-dihydroquinoline-3-carbonitrile]	104
Cn1c(=O)c(C#N)c(N2CCC(c3cccc(S(C)(=O)=O)c3)CC2)c2ccccc21 [Example 80, 4-{4-[3-(methanesulfonyl)phenyl]piperidin-1-yl}-1-methyl-2-oxo-1,2-dihydroquinoline-3-carbonitrile]	333
Cc1ccccc1C1CCN(c2c(C#N)c(=O)n(C)c3ccccc23)CC1 [Example 82, 1-methyl-4-[4-(2-methylphenyl)piperidin-1-yl]-2-oxo-1,2-dihydroquinoline-3-carbonitrile]	11
Cc1ccc(C2CCN(c3c(C#N)c(=O)n(C)c4ccccc34)CC2)cc1 [Example 83, 1-methyl-4-[4-(4-methylphenyl)piperidin-1-yl]-2-oxo-1,2-dihydroquinoline-3-carbonitrile]	4.4
Cn1c(=O)c(C#N)c(N2CCC(c3cc(Cl)cc(Cl)c3)CC2)c2ccccc21 [Example 84, 4-[4-(3,5-dichlorophenyl)piperidin-1-yl]-1-methyl-2-oxo-1,2-dihydroquinoline-3-carbonitrile]	52
Cn1c(=O)c(C#N)c(N2CCC(c3cccc(Br)c3)CC2)c2ccccc21 [Example 85]	54
Cn1c(=O)c(C#N)c(N2CCC(c3ccc(C#N)cc3)CC2)c2ccccc21 [Example 86, 4-[4-(4-cyanophenyl)piperidin-1-yl]-1-methyl-2-oxo-1,2-dihydroquinoline-3-carbonitrile]	54
Cn1c(=O)c(C#N)c(N2CCC(c3cccc(C(F)F)c3)CC2)c2ccccc21 [Example 87, 4-{4-[3-(difluoromethyl)phenyl]piperidin-1-yl}-1-methyl-2-oxo-1,2-dihydroquinoline-3-carbonitrile]	7.1

Structure (SMILES)	IC50 [nM]
Cn1c(=O)c(C#N)c(N2CCC(c3ccc(Br)cc3)CC2)c2ccccc21 [Example 88, 4-[4-(4-bromophenyl)piperidin-1-yl]-1-methyl-2-oxo-1,2-dihydroquinoline-3-carbonitrile]	47
COc1ccc(C2CCN(c3c(C#N)c(=O)n(C)c4cc(Br)ccc34)CC2)cc1 [Example 89, 7-bromo-4-[4-(4-methoxyphenyl)piperidin-1-yl]-1-methyl-2-oxo-1,2-dihydroquinoline-3-carbonitrile]	2.1
Cn1c(=O)c(C#N)c(N2CCC(c3ccccc3)CC2)c2ccc(Br)cc21 [Example 90, 7-bromo-1-methyl-2-oxo-4-(4-phenylpiperidin-1-yl)-1,2-dihydroquinoline-3-carbonitrile]	5.5
COc1ccc(C2CCN(c3c(C#N)c(=O)n(C)c4cc(C)ccc34)CC2)cc1 [Example 91, 4-[4-(4-methoxyphenyl)piperidin-1-yl]-1,7-dimethyl-2-oxo-1,2-dihydroquinoline-3-carbonitrile]	3.1
COc1ccc(C2CCN(c3c(C#N)c(=O)n(C)c4cc(-c5ccccc5)ccc34)CC2)cc1 [Example 92, 4-[4-(4-methoxyphenyl)piperidin-1-yl]-1-methyl-2-oxo-7-phenyl-1,2-dihydroquinoline-3-carbonitrile]	9.8
COc1ccc(C2CCN(c3c(C#N)c(=O)n(C)c4cc(C#N)ccc34)CC2)cc1 [Example 93, 4-[4-(4-methoxyphenyl)piperidin-1-yl]-1-methyl-2-oxo-1,2-dihydroquinoline-3,7-dicarbonitrile]	11
COc1ccc(C2CCN(c3c(C#N)c(=O)n(C)c4cc(N5CCCC5=O)ccc34)CC2)cc1 [Example 96, 4-[4-(4-methoxyphenyl)piperidin-1-yl]-1-methyl-2-oxo-7-(2-oxopyrrolidin-1-yl)-1,2-dihydroquinoline-3-carbonitrile]	20
COc1ccc(C2CCN(c3c(C#N)c(=O)n(C)c4cc(C5COC5)ccc34)CC2)cc1 [Example 97, 4-[4-(4-methoxyphenyl)piperidin-1-yl]-1-methyl-7-(oxetan-3-yl)-2-oxo-1,2-dihydroquinoline-3-carbonitrile]	33
COc1ccc(C2CCN(c3c(C#N)c(=O)n(C)c4cc(N=S(C)(C)=O)ccc34)CC2)cc1 [Example 99, 7-{[dimethyl(oxo)-λ^6-sulfanylidene]amino}-4-[4-(4-methoxyphenyl)piperidin-1-yl]-1-methyl-2-oxo-1,2-dihydroquinoline-3-carbonitrile]	64
COc1ccc(C2CCN(c3c(C#N)c(=O)n(C)c4cc(C5=CCOCC5)ccc34)CC2)cc1 [Example 100, 7-(3,6-dihydro-2H-pyran-4-yl)-4-[4-(4-methoxyphenyl)piperidin-1-yl]-1-methyl-2-oxo-1,2-dihydroquinoline-3-carbonitrile]	2.3
Cn1c(=O)c(C#N)c(N2CCC(c3cccc4occc34)CC2)c2ccccc21 [Example 101, 4-[4-(1-benzofuran-4-yl)piperidin-1-yl]-1-methyl-2-oxo-1,2-dihydroquinoline-3-carbonitrile]	12
CC(C)Oc1ccc(C2CCN(c3c(C(N)=O)c(=O)n(C)c4ccccc34)CC2)cc1 [Example 102, 1-methyl-2-oxo-4-(4-{4-[(propan-2-yl)oxy]phenyl}piperidin-1-yl)-1,2-dihydroquinoline-3-carboxamide]	0.3
CC(C)c1ccc2oc(C3(C)CCN(c4c(C(N)=O)c(=O)n(C)c5ccccc45)CC3)nc2c1 [Example 103, 1-methyl-4-{4-methyl-4-[5-(propan-2-yl)-1,3-benzoxazol-2-yl]piperidin-1-yl}-2-oxo-1,2-dihydroquinoline-3-carboxamide]	0.6
Cn1c(=O)c(C(N)=O)c(N2CCC(c3nc4ccccc4o3)CC2)c2ccc(Br)cc21 [Example 104, 4-[4-(1,3-benzoxazol-2-yl)piperidin-1-yl]-7-bromo-1-methyl-2-oxo-1,2-dihydroquinoline-3-carboxamide]	0.6
Cn1c(=O)c(C(N)=O)c(N2CCC(C)(c3nc4ccccc4o3)CC2)c2ccccc21 [Example 105, 4-[4-(1,3-benzoxazol-2-yl)-4-methylpiperidin-1-yl]-1-methyl-2-oxo-1,2-dihydroquinoline-3-carboxamide]	1.9
CCC1(c2nc3ccccc3o2)CCN(c2c(C#N)c(=O)n(C)c3ccccc23)CC1 [Example 106, 4-[4-(1,3-benzoxazol-2-yl)-4-ethylpiperidin-1-yl]-1-methyl-2-oxo-1,2-dihydroquinoline-3-carbonitrile]	0.9
Cc1ccc2oc(C3CCN(c4c(C(N)=O)c(=O)n(C)c5ccccc45)CC3)nc2c1 [Example 107, 1-methyl-4-[4-(5-methyl-1,3-benzoxazol-2-yl)piperidin-1-yl]-2-oxo-1,2-dihydroquinoline-3-carboxamide]	2.3
